Laboratory results: paper PMC5298231, “The Malaria Parasite's Lactate Transporter PfFNT Is the Target of Antiplasmodial Compounds Identified in Whole Cell Phenotypic Screens” (PLoS Pathogens, 2017)
Where a name gives a salt, the structure may show the parent alone.

Tested on: erythrocytes infected with 3D7 trophozoites
Format: cell-based, Plasmodium falciparum
Details: sheet Ratio; for Ratio of metabolite abundance, Exp1_1hr: Exp1, 1hr; for Ratio of metabolite abundance, Exp1_3hr: Exp1, 3hr; for Ratio of metabolite abundance, Exp1_6hr: Exp1, 6hr; for Ratio of metabolite abundance, Exp2_1hr: Exp2, 1hr; for Ratio of metabolite abundance, Exp2_3hr: Exp2, 3hr; for Ratio of metabolite abundance, Exp2_6hr: Exp2, 6hr; for Ratio of metabolite abundance, Exp3_1hr: Exp3, 1hr; for Ratio of metabolite abundance, Exp3_3hr: Exp3, 3hr; for Ratio of metabolite abundance, Exp3_6hr: Exp3, 6hr

| SMILES | Ratio of metabolite abundance, Exp1_1hr | Ratio of metabolite abundance, Exp1_3hr | Ratio of metabolite abundance, Exp1_6hr | Ratio of metabolite abundance, Exp2_1hr | Ratio of metabolite abundance, Exp2_3hr | Ratio of metabolite abundance, Exp2_6hr | Ratio of metabolite abundance, Exp3_1hr | Ratio of metabolite abundance, Exp3_3hr | Ratio of metabolite abundance, Exp3_6hr |
| --- | --- | --- | --- | --- | --- | --- | --- | --- | --- |
| Nc1ncnc2c1ncn2[C@@H]1O[C@H](COP(=O)(O)OP(=O)(O)OP(=O)(O)O)[C@@H](O)[C@H]1O [ATP] | 0.9749 | 0.855 | 0.8179 | 0.9538 | 0.8859 | 0.784 | 0.9549 | 0.8395 | 0.7365 |
| CC(=O)SCCNC(=O)CCNC(=O)[C@H](O)C(C)(C)COP(=O)(O)OP(=O)(O)OC[C@H]1O[C@@H](n2cnc3c(N)ncnc32)[C@H](O)[C@@H]1OP(=O)(O)O [Acetyl-CoA] | 0.7257 | 0.4303 | 0.3828 | 0.6969 | 0.7538 | 0.6508 | 0.7524 | 0.685 | 0.5138 |
| CC(=O)N[C@@H](C)C(=O)O [Acetyl-L-alanine] | 1.844 | 0.6703 | 0.7764 | 1.062 | 0.5861 | 0.7816 | 0.7593 | 1.204 | 0.7219 |
| NCCOP(=O)(O)OP(=O)(O)OC[C@H]1O[C@@H](n2ccc(N)nc2=O)[C@H](O)[C@@H]1O [CDP-ethanolamine] | 1.165 | 0.8992 | 0.8287 | 1.33 | 1.135 | 1.07 | 1.146 | 1.029 | 0.9178 |
| Nc1ccn([C@@H]2O[C@H](COP(=O)(O)OP(=O)(O)O)[C@@H](O)[C@H]2O)c(=O)n1 [CDP] | 1.235 | 0.632 | 0.653 | 1.081 | 0.7109 | 1.157 | 0.7322 | 0.673 | 0.7355 |
| Nc1ccn([C@@H]2O[C@H](COP(=O)(O)O)[C@@H](O)[C@H]2O)c(=O)n1 [CMP] | 1.383 | 1.267 | 1.102 | 0.8705 | 0.5442 | 1.311 | 1.179 | 1.206 | 1.249 |
| Nc1ccn([C@@H]2O[C@H](COP(=O)(O)OP(=O)(O)OP(=O)(O)O)[C@@H](O)[C@H]2O)c(=O)n1 [CTP] | 0.8417 | 0.6895 | 0.6055 | 0.8987 | 0.9317 | 0.7353 | 0.7379 | 0.8137 | 0.693 |
| CC(C)CCC[C@@H](C)[C@H]1CC[C@H]2[C@@H]3CC=C4C[C@@H](OS(=O)(=O)O)CC[C@]4(C)[C@H]3CC[C@]12C [Cholesteryl sulfate] | 0.8398 | 0.919 | 0.8716 | 0.7894 | 1.057 | 0.9329 | 0.813 | 0.7802 | 0.8279 |
| CC(C)(COP(=O)(O)OP(=O)(O)OC[C@H]1O[C@@H](n2cnc3c(N)ncnc32)[C@H](O)[C@@H]1OP(=O)(O)O)[C@@H](O)C(=O)NCCC(=O)NCCS [CoA] | 0.7833 | 0.6851 | 0.6052 | 0.7277 | 0.6878 | 0.6949 | 0.705 | 0.6678 | 0.6155 |
| O=C1O[C@H]([C@H](O)CO)[C@H](O)[C@H]1O [D-Glucono-1-4-lactone] | 3.064 | 5.2964 | 6.162 | 1.636 | 4.1814 | 4.766 | 5.473 | 2.843 | 3.44 |
